Results from patent US11851387B2, “Para-phenylenediamine derivative, 1,4-cyclohexyldiamine derivative, and fabricating method for 1,4-diamine cyclic compound derivative” (Yuanhan Materials Inc., priority 2021, dated 2023).

Experiment: Solubility in solvent commonly used in the synthesis of polyimide (NMP, DMAc)
Assay type: physicochemical
Text: In the following descriptions, features and effects of the present disclosure will be described more specifically with reference to some Embodiments and some Comparative Examples. It is noted that without exceeding the scope of the present disclosure, the materials used, their amount and ratio, processing details, processing flow, etc. can be appropriately alternated. Therefore, the present disclosure should not be interpreted restrictively by the Embodiments provided below. Specifically, each Comparative Example and each Embodiment are thoroughly mixed with solvent commonly used in the synthesis of polyimide (e.g., N-methylpyrrolidone (NMP) and dimethylacetamide (DMAc)), and the solubility of each Comparative Example and each Embodiment in the solvent is measured, so as to verify the efficacy of the present disclosure. The detailed description and the measurement results of the solubility of each Comparative Example and each Embodiment are shown in Table 1.

Compound	Solubility (g/100 g solvent) (solvent NMP, dissolution temperature 50° C.)	Solubility (g/100 g solvent) (solvent DMAc, dissolution temperature 70° C.)
Nc1ccc(N)cc1 [Comparative Example 1, para-phenylenediamine]	4.1 g/100 g solvent	
NC1CCC(N)CC1 (centres unmarked) [Comparative Example 2, 1,4-cyclohexanediamine]		5.7 g/100 g solvent
